pEC50, pIC50: −log10 of the molar value. Like-named read-outs stand apart in the source and are kept apart here. No end group written: not given here.
What was measured:
[1] = test system: Langendorff perfused rat heart; test: Langendorff perfused rat heart, basal conditions: concentration-response of catestatin peptides
Source text: Animals-Male Wistar rats (Morini, Bologna, Italy S.P.A.) weighing 180-250 g were housed (three per cage) in a ventilated cage rack system under standard conditions. Animals had food and water access ad libitum. The investigation conforms to the Guide for the Care and Use of Laboratory Animals, according to NIH Publication No. 85-23, revised 1996. Isolated heart preparation-Rats were anesthetized with ethyl carbamate (2 g/Kg rat, i.p.), the hearts rapidly excised and then transferred in ice-cold buffered Krebs-Henseleit solution (KHs). As previously described (23), the aorta was immediately cannulated with a glass cannula and connected to Langendorff apparatus to start perfusion at constant flow-rate (12 ml/min). Briefly, the apex of the left ventricle (LV) was pierced to avoid fluid accumulation. A water-filled latex balloon, connected to a pressure transducer ([…], Inc. USA), was inserted through mitral valve into the LV allowing isovolumic contractions and continuous mechanical parameters recording. Another pressure transducer located just above the aorta recorded coronary pressure (CP). […] Hemodynamic parameters were assessed using a PowerLab data acquisition system and analysed using Chart software (both purchased by ADInstruments, Basile, Italy). […] Curve fitting was accomplished in the program Kaleidagraph (Synergy Software, Reading, Pa.). Peptide EC50 and IC50 values were interpolated as the concentration that achieved 50% stimulation and inhibition, respectively. For analysis of phosphorylated proteins, levels were quantified using Bio-Rad QuantifyOne and volumes of phosphorylated proteins were divided by the levels of non-phosphorylated proteins to calculate fold activation. Stimulation of protein activity was expressed as fold increase over vehicle-treated control. The means and S.E.M. were calculated for each treatment. Multiple comparisons were made using either one-way ANOVA followed by Bonferroni's post-hoc test or two-way ANOVA. Statistical significance was concluded at p<0.05. Statistics were computed with the program InStat (GraphPad Software, Inc., San Diego, Calif.).

[2] = test system: WT and Chga knockout (KO) mice; test: BP and HR by telemetry in immobilization stress, conscious mice; assay type: in vivo
Source text: Animals. Chga knockout (KO) mice and their wild-type (WT) littermates were generated as described (13). All animals were housed on a 12 hr light dark cycle and fed a standard rodent chow. The Animal Care and Use Committee of University of California at San Diego approved all protocols for animal use and euthanasia in accordance with National Institute of Health guidelines. Both WT and KO mice (5-6 month old) in this study were from mixed (129 SvJ and C57BL/6) genetic background.
Conscious mice. Measurement of BP and HR in immobilization stress-induced telemetered mice: BP & HR were measured by telemetry as described previously (13). The experiments were initiated 10 days after the surgery. Immobilization stress was initiated by placing mice in restrainer (Braintree Scientific Inc, Braintree, Mass.) at 10:00 AM and kept for 2 hrs for continuous recording of BP and HR by telemetry followed by recovery from stress in home cages for 2 hrs. CST was injected (40 μg/g bw ip) 30 minutes before stress induction to explore the role of CST in stress response.

[3] = test system: Langendorff perfused rat heart; test: Isoproterenol stimulated Langendorff heart preparations; details: ISO 0.1 nM to 1 μM; WT-CST 33 and 110 nM, G364S-CST 200 nM, P370L-CST 165 nM
[4] = test system: Langendorff perfused rat heart; test: WT-CST inotropism/lusitropism in presence of adrenergic, cholinergic, Gi/o and NO-pathway inhibitors (Langendorff heart); details: for Negative inotropism with muscarinic receptor antagonist: WT-CST 110 nM + Atropine 10 nM; for Negative inotropism with β-adrenoceptor antagonist: WT-CST 110 nM + Nadolol 10 nM; for Negative inotropism with α-adrenoceptor antagonist: WT-CST 110 nM + Phentolamine 100 nM; for Negative inotropism with Gi/o protein inhibition: WT-CST 110 nM after PTx 0.01 nM; for LVP change: preliminary experiments
Protocol: Adrenergic and cholinergic receptors involvement—To obtain information on the involvement of β1/β2, α-adrenergic receptors (ARs) and cholinergic receptors (AchR) on the inotropic and lusitropic effects induced by WT-Cts, cardiac preparations, stabilized for 20 min with KHs, were perfused with Nadolol (10 nM) or Phentolamine (100 nM) or Atropine (10 nM) for 10 min and then washed-out with KHs. After returning to control conditions, each heart was perfused with KHs containing a single concentration of Cts WT (110 nM) plus Nadolol (10 nM) or Phentolamine (100 nM) or Atropine (10 nM) for an additional 10 min.
Involvement of inhibitory G-protein (Gi/o)—To evaluate the involvement of inhibitory G-proteins in the cardiac action of WT-Cts, hearts were preincubated for 60 min with KHs enriched with pertussis toxin (PTx: 0.01 nM) and then exposed for 10 min to WT-Cts (110 nM). PTx catalyzes ADP-ribosylation of Gi/o alpha-subunit, uncoupling Gi-membrane receptor interaction.
NO-pathway inhibitor stimulated preparations—Hearts were stabilized for 20 min with KHs, perfused with 110 nM WT-Cts for 10 min and then the peptide was washed-out with KHs. After returning to control conditions, each heart was perfused with KHs containing either the NO scavenger PTIO, the non-specific NOS inhibitor L-NMMA, a soluble guanylate cyclase inhibitor (ODQ) or a protein kinase G blocker (KT5823). Subsequently, the hearts were exposed to the specific signaling inhibitor plus 110 nM of WT-Cts.

Sequence: SSMKLSFRARAYGFRGPGPQL [WT-CST, catestatin]
- pEC50 [1]: ~7.90
- Time the LVP effect remained stable [1]: 15 min
- Time to maximum effect on LVP after administration [1]: 5 min
- pIC50 ([1]; 11 to 200 nM, measured at 10 min, read-out: +(LVdP/dt)max inhibition IC50): ~7.14
- pEC50 ([1]; 11 to 200 nM, measured at 10 min, read-out: T/−t increment EC50): 7.22
- pIC50 ([1]; 11 to 200 nM, measured at 10 min, read-out: −(LVdP/dt)max decrement IC50): 7.13
- Concentration of maximum CP response ([1]; basal): 200 nM
- Concentration of maximum HR increase ([1]; basal): 165 nM
- Effect on CP (coronary pressure) ([1]; basal): dose-dependent increment
- Activity rank order ([1]; basal conditions, Table 2): Activity: WT-CST > P370L-CST > G364S-CST
- Inotropism ([1]; basal conditions, Table 2): Negative
- Lusitropism ([1]; basal conditions, Table 2): Negative
- Effect on HR ([1]; basal, WT-Cts significant at 33 nM): significantly increased
- Desensitization on repetitive exposure ([1]; single concentration 33 nM, repeated): absence of desensitization
- Heightened HR responses to stress ([2]; KO mice): abolished
- SBP after 1 h of recovery from the stress ([2]; KO mice): brought SBP to WT level
- Basal SBP ([2]; KO mice, 40 μg/g bw ip): decreased
- Stress-induced increments in SBP ([2]; KO mice, 40 μg/g bw ip): attenuated
- HR AUC ([2]; KO mice, stress and recovery): 143340±1889
- SBP AUC ([2]; KO mice, stress and recovery): 26639±399
- Basal or stress-induced increments in DBP ([2]; WT and KO mice): no significant effect
- Basal and stress-induced increase in HR ([2]; WT mice): no effect
- Basal SBP ([2]; WT mice, 40 μg/g bw ip): no effect
- Attenuation of stress-induced increments in SBP ([2]; WT mice, 40 μg/g bw ip 30 min before stress): 7.1 mmHg
- ISO-induced stimulation of LVP (concentration-response) [3]: significantly inhibited
- Negative inotropism with muscarinic receptor antagonist [4]: remained unaffected
- Negative inotropism with muscarinic receptor antagonist ([4]; listed as WT-Cts): Unchanged
- CST-induced changes in cardiac performance with PKG inhibition by KT5823 ([4]; WT-CST 110 nM + KT5823 0.1 μM): failed to affect
- Negative inotropism and lusitropism with NOS inhibition by L-NMMA ([4]; WT-CST 110 nM + L-NMMA 10 μM): abolished
- Negative inotropism with β-adrenoceptor antagonist [4]: abolished
- Negative inotropism with β-adrenoceptor antagonist ([4]; listed as WT-Cts): Abolished
- Negative inotropism and lusitropism with sGC blockade by ODQ ([4]; WT-CST 110 nM + ODQ 10 μM): abolished
- Negative inotropism and lusitropism with NO removal by PTIO ([4]; WT-CST 110 nM + PTIO 10 μM): abolished
- Negative inotropism with α-adrenoceptor antagonist [4]: reduced
- Negative inotropism with α-adrenoceptor antagonist ([4]; listed as WT-Cts): Reduced
- Negative inotropism with Gi/o protein inhibition [4]: abolished
- Negative inotropism with Gi/o protein inhibition ([4]; listed as WT-Cts): Abolished
- Negative inotropism with eNOS-NO-cGMP-PKG pathway inhibition ([4]; WT-CST 110 nM, Table 1): Abolished
- LVP change ([4]; WT-Cts + L-NIO (eNOS selective inhibitor)): 5.04±1.69
- LVP change ([4]; WT-Cts + Vinyl-L-NIO (nNOS selective inhibitor)): −13.14±2.25
- LVP change ([4]; WT-Cts alone): −18.19±2.27

Reference: patent US20110166066A1, “CATESTATIN (CST) AND ITS VARIANTS FOR TREATMENT OF CARDIOVASCULAR AND METABOLIC DISORDERS” (priority 2008, published 2011)
